Laboratory results: patent US20140079836A1, “METHODS AND COMPOSITIONS FOR ALTERING HEALTH, WELLBEING, AND LIFESPAN” (LifeSpan Extension, LLC, priority 2008, published 2014)

Tested on: entire human genome (gene expression profile)
Test: Agilent whole human genome array, skin fibroblasts AG07999, antioxidant with or without UV
Format: cell-based
Description: Cell cultures: A human skin fibroblast cell culture was obtained through the Coriell Cell Repository from the National Institute on Aging Cell Repository. […] Culture media: Cells were grown in Minimal Essential Medium supplemented with 10% fetal bovine serum, 2 mM L-glutamine, 2 mM Glutamax I. […] All cultures were incubated at 37° C. with 5% CO2 in a humidified chamber. […] On Day 5 after 24 hours of exposure to test conditions, the cells were isolated and the RNA isolated using the RT^2q PCR-grade RNA isolation kit (Superarray Bioscience Corporation). […] Analysis of Agilent Whole Human Genome Arrays: RNA taken from both samples was sent to Cogenics, Inc. Morrisville, N.C. Cogenics, Inc. is a leading, state-of-the-art, microarray service provider that facilitates and accelerates transcriptome profiling and gene discovery processes for industrial and academic researchers. Cogenics' procedure for processing samples is as follows: RNA samples are received and analyzed by Cogenics, Inc. using rigorous standardized procedures that are designed to ensure quality and chain of custody. Each sample undergoes a thorough quality analysis using an Agilent Bioanalyzer microfluidics device, and is precisely quantified using a Nanodrop-1000 spectro-photometer. When the Agilent Oligonucleotide Microarray Platform is utilized, samples are fluorescently labeled using the Agilent Low-Input Linear Amplification Kit. Upon completion of this process, the labeled cRNA products are assessed using the same processes described above. These labeled samples are then fragmented and hybridized to oligonucleotide microarrays. The microarrays are washed and then scanned using an Agilent DNA Microarray Scanner with Sure Scan technology. Data is extracted from the images produced by the scanner using Agilent's Feature Extraction software. At this point, the scanned image is visually inspected for defects, and the extracted data is statistically analyzed to ensure quality of the assay. Extracted data and images can be loaded into Rosetta Resolver Gene Expression Data Analysis System for in-depth analysis, both from a quality standpoint, as well as to develop biological understanding. […] A table was generated and provided as a tab-delimited text file. This file will contain the log ratio, fold-change, log ratio p-value, etc. for every transcript measured by the microarray. Using Rosetta Resolver, a single ratio comparison was compiled based on the results of the two fluorophore reversal hybridization performed in the context of this project. The ratios were calculated such that the Tx sample was in the numerator and the UnTx sample was in the denominator. A table was generated, saved as tab-delimited text files, and is provided on the DVD that accompanied this report in the “Objective—1” subdirectory or the “Data_Analysis” directory. These files contain the log ratio, fold-change, log ratio p-value, etc. for every transcript present on the microarray. […] A table for will be generated and provided as a tab-delimited text file. The file will contain the log ratio, fold-change, log ratio p-value, etc. for only the differentially expressed transcripts within the context of the comparison. […] These criteria were applied to the comparison made in Objective 1. A table was generated, saved as tab-delimited text files, and is provided on the DVD that accompanied this report in the “Objective—1” subdirectory or the “Data_Analysis” directory. […] Cell cultures: A human skin fibroblast cell culture (or cultures) will be obtained through the Coriell Cell Repository from the National Institute on Aging Cell Repository. […] Culture media: Cells will be grown in Minimal Essential Medium supplemented with 10% fetal bovine serum, 2 mM L-glutamine, 2 mM Glutamax I.

With COC1=C(OC)C(=O)C(CCCCCCCCCCO)=C(C)C1=O [Idebenone, 6-(10-hydroxydecyl)-2,3-dimethoxy-5-methyl-1,4-benzoquin-one] the “STOML2 Expression” value (Alone) was 1.2, the “TAGLN Expression” value (Alone) was −1.2 and the “TBXA2R Expression” value (Alone) was −1.1. For the same molecule, the “TEP1 Expression” value (Alone) was 1.0, the “TERF1 Expression” value (Alone) was −1.0 and the “TERT expression” value (Alone) was 1.1. For the same molecule, the “TFAP2A Expression” value (Alone) was −1.2, the “TFAP2B Expression” value (Alone) was 1.0 and the “TFAP2C Expression” value (Alone) was −1.1. The “TFRC Expression” value (Alone) was 1.1, the “TGFA Expression” value (Alone) was 1.0 and the “TGFB1 Expression” value (Alone) was 1.0. For the same molecule, the “TGFBR2 Expression” value (Alone) was −1.3, the “TGM1 Expression” value (Alone) was −1.1 and the “TH Expression” value (Alone) was 1.6. The “THBS1 Expression” value (Alone) was −1.1, the “TIMP1 Expression” value (Alone) was −1.4 and the “TIMP2 Expression” value (Alone) was −1.4. The “TK1 Expression” value (Alone) was 1.6, the “TM4SF1 Expression” value (Alone) was −1.1 and the “TNF Expression” value (Alone) was 1.1. The “TNFRSF1A Expression” value (Alone) was −1.1, the “TNFRSF1B Expression” value (Alone) was −1.8 and the “TNFRSF11B Expression” value (Alone) was 1.0. The “TOP2A Expression” value (Alone) was 1.6, the “TYMS Expression” value (Alone) was 1.2 and the “UBE2C Expression” value (Alone) was 1.5. The “UBE2V1 Expression” value (Alone) was −1.1, the “VEGFC Expression” value (Alone) was 1.0 and the “XRCC6BP1 Expression” value (Alone) was 1.1. For the same molecule, the “YWHAZ Expression” value (Alone) was 1.0, the “AKT1 Expression” value (Idebenone + UVB) was −1.6 and the “ALOX12 Expression” value (Idebenone + UVB) was 1.8. For the same molecule, the “APOE Expression” value (Idebenone + UVB) was −1.2, the “ARG2 Expression” value (Idebenone + UVB) was 1.2 and the “ATOX1 Expression” value (Idebenone + UVB) was −1.0. The “CAMK1 Expression” value (Idebenone + UVB) was −1.7, the “CAT Expression” value (Idebenone + UVB) was −1.3 and the “CCNA1 Expression” value (Idebenone + UVB) was 1.0. For the same molecule, the “CCS Expression” value (Idebenone + UVB) was −1.2, the “CDKN1A Expression” value (Idebenone + UVB) was −1.1 and the “CYBA Expression” value (Idebenone + UVB) was −1.2. For the same molecule, the “CYGB Expression” value (Idebenone + UVB) was −1.4, the “DDAH2 Expression” value (Idebenone + UVB) was 1.0 and the “DLG4 Expression” value (Idebenone + UVB) was −1.0. The “DNCL1 Expression” value (Idebenone + UVB) was 1.0, the “DND1 Expression” value (Idebenone + UVB) was −1.0 and the “DUOX1 Expression” value (Idebenone + UVB) was 1.2. For the same molecule, the “DUOX2 Expression” value (Idebenone + UVB) was 2.0, the “DUSP1 Expression” value (Idebenone + UVB) was 1.2 and the “EGFR Expression” value (Idebenone + UVB) was −1.0. For the same molecule, the “EPX Expression” value (Idebenone + UVB) was −2.2, the “FOXM1 Expression” value (Idebenone + UVB) was −1.5 and the “GCH1 Expression” value (Idebenone + UVB) was −1.7. The “GCHFR Expression” value (Idebenone + UVB) was 1.0, the “GLA Expression” value (Idebenone + UVB) was 1.0 and the “GLRX2 Expression” value (Idebenone + UVB) was 1.0. For the same molecule, the “GPR156 Expression” value (Idebenone + UVB) was 1.3, the “GPX1 Expression” value (Idebenone + UVB) was −1.1 and the “GPX2 Expression” value (Idebenone + UVB) was −1.2. For the same molecule, the “GPX3 Expression” value (Idebenone + UVB) was −1.2, the “GPX4 Expression” value (Idebenone + UVB) was −1.1 and the “GPX5 Expression” value (Idebenone + UVB) was 1.4. The “GRIN2D Expression” value (Idebenone + UVB) was 1.1, the “GSS Expression” value (Idebenone + UVB) was −1.1 and the “HSP90AB1 Expression” value (Idebenone + UVB) was −1.3. The “IL8 Expression” value (Idebenone + UVB) was 1.0, the “IL10 Expression” value (Idebenone + UVB) was 1.1 and the “INS Expression” value (Idebenone + UVB) was 1.1. The “JUN Expression” value (Idebenone + UVB) was −1.1, the “KRT1 Expression” value (Idebenone + UVB) was 1.0 and the “LPO Expression” value (Idebenone + UVB) was 1.1. For the same molecule, the “MBL2 Expression” value (Idebenone + UVB) was 1.0, the “MPO Expression” value (Idebenone + UVB) was 1.0 and the “MSRA Expression” value (Idebenone + UVB) was 1.2. For the same molecule, the “MT3 Expression” value (Idebenone + UVB) was 1.1, the “MTL5 Expression” value (Idebenone + UVB) was −1.1 and the “MYB Expression” value (Idebenone + UVB) was 1.0. For the same molecule, the “NCF1 Expression” value (Idebenone + UVB) was −1.2, the “NCF2 Expression” value (Idebenone + UVB) was 1.6 and the “NME5 Expression” value (Idebenone + UVB) was 1.2. For the same molecule, the “NOS1 Expression” value (Idebenone + UVB) was 1.2, the “NOS2A Expression” value (Idebenone + UVB) was 1.1 and the “NOS3 Expression” value (Idebenone + UVB) was −1.0. The “NOSIP Expression” value (Idebenone + UVB) was −1.2, the “NOSTRIN Expression” value (Idebenone + UVB) was 1.0 and the “NOX5 Expression” value (Idebenone + UVB) was −1.2. The “NQO1 Expression” value (Idebenone + UVB) was −1.2, the “NRF1 Expression” value (Idebenone + UVB) was −1.4 and the “NUDT1 Expression” value (Idebenone + UVB) was −1.1. For the same molecule, the “OXR1 Expression” value (Idebenone + UVB) was 1.1, the “PGC Expression” value (Idebenone + UVB) was 1.2 and the “PKAR1B Expression” value (Idebenone + UVB) was −1.0. The “PNKP Expression” value (Idebenone + UVB) was −1.3, the “PP3CA Expression” value (Idebenone + UVB) was 1.1 and the “PRDX2 Expression” value (Idebenone + UVB) was 1.0. For the same molecule, the “PRDX6 Expression” value (Idebenone + UVB) was 1.1, the “PREX1 Expression” value (Idebenone + UVB) was −1.1 and the “PRG3 Expression” value (Idebenone + UVB) was −1.0. The “PRKCA Expression” value (Idebenone + UVB) was −1.1, the “PRNP Expression” value (Idebenone + UVB) was 1.0 and the “RNF7 Expression” value (Idebenone + UVB) was −1.0. For the same molecule, the “SCARA3 Expression” value (Idebenone + UVB) was −1.0, the “SCRT2 Expression” value (Idebenone + UVB) was 1.3 and the “SELS Expression” value (Idebenone + UVB) was 1.0. The “SEPP1 Expression” value (Idebenone + UVB) was 1.0, the “SGK2 Expression” value (Idebenone + UVB) was −1.2 and the “SIRT2 Expression” value (Idebenone + UVB) was −1.1. For the same molecule, the “SOD1 Expression” value (Idebenone + UVB) was −1.1, the “SOD2 Expression” value (Idebenone + UVB) was 1.0 and the “SOD3 Expression” value (Idebenone + UVB) was 1.1. The “SRXN1 Expression” value (Idebenone + UVB) was −1.1.
